Experimental data taken from ChEMBL document CHEMBL4715814, “Design, synthesis and biological activity evaluation of novel 4-subtituted 2-naphthamide derivatives as AcrB inhibitors” (2018).
Calls of active or inactive are those of the source. No cut-off for these calls is given here.

How the values were obtained:
Escherichia coli [1] = experiment: Potentiation of chloramphenicol-induced antibacterial activity against wild type Escherichia coli BW25113 assessed as chloramphenicol MIC at 128 ug/ml incubated for 18 hrs under aerobic condition by checkerboard titration assay (reference value: 16 ug/ml); type: functional; settings: dose 128 µg/ml
Escherichia coli [2] = experiment: Potentiation of TPP-induced antibacterial activity against wild type Escherichia coli BW25113 assessed as TPP MIC at 256 ug/ml incubated for 18 hrs under aerobic condition by checkerboard titration assay (reference value: 1024 ug/ml); type: functional; settings: dose 256 µg/ml
Escherichia coli [3] = experiment: Potentiation of rifampicin-induced antibacterial activity against wild type Escherichia coli BW25113 assessed as rifampicin MIC at 256 ug/ml incubated for 18 hrs under aerobic condition by checkerboard titration assay (reference value: 16 ug/ml); type: functional; settings: dose 256 µg/ml
Escherichia coli [4] = experiment: Potentiation of TPP-induced antibacterial activity against AcrB deficient Escherichia coli BW25113 assessed as TPP MIC at 256 ug/ml incubated for 18 hrs under aerobic condition by checkerboard titration assay (reference value: 256 ug/ml); type: functional; settings: dose 256 µg/ml
Escherichia coli [5] = experiment: Potentiation of TPP-induced antibacterial activity against wild type Escherichia coli BW25113 assessed as TPP MIC at 128 ug/ml incubated for 18 hrs under aerobic condition by checkerboard titration assay (reference value: 1024 ug/ml); type: functional; settings: dose 128 µg/ml
Escherichia coli [6] = experiment: Potentiation of erythromycin-induced antibacterial activity against wild type Escherichia coli BW25113 assessed as fold reduction in erythromycin MIC at 128 ug/ml incubated for 18 hrs under aerobic condition by checkerboard titration assay relative to erythromycin MIC alone; type: functional; settings: dose 128 µg/ml
Escherichia coli [7] = experiment: Potentiation of erythromycin-induced antibacterial activity against wild type Escherichia coli BW25113 assessed as erythromycin MIC at 128 ug/ml incubated for 18 hrs under aerobic condition by checkerboard titration assay (reference value: 128 ug/ml); type: functional; settings: dose 128 µg/ml
Escherichia coli [8] = experiment: Potentiation of erythromycin-induced antibacterial activity against AcrB deficient Escherichia coli BW25113 assessed as erythromycin MIC at 128 ug/ml incubated for 18 hrs under aerobic condition by checkerboard titration assay (reference value: 32 ug/ml); type: functional; settings: dose 128 µg/ml
Escherichia coli [9] = experiment: Potentiation of erythromycin-induced antibacterial activity against AcrB deficient Escherichia coli BW25113 assessed as erythromycin MIC at 256 ug/ml incubated for 18 hrs under aerobic condition by checkerboard titration assay (reference value: 32 ug/ml); type: functional; settings: dose 256 µg/ml
Escherichia coli [10] = experiment: Potentiation of chloramphenicol-induced antibacterial activity against wild type Escherichia coli BW25113 assessed as fold reduction in chloramphenicol MIC at 128 ug/ml incubated for 18 hrs under aerobic condition by checkerboard titration assay relative to chloramphenicol MIC alone; type: functional; settings: dose 128 µg/ml
Escherichia coli [11] = experiment: Potentiation of chloramphenicol-induced antibacterial activity against wild type Escherichia coli BW25113 assessed as chloramphenicol MIC at 256 ug/ml incubated for 18 hrs under aerobic condition by checkerboard titration assay (reference value: 16 ug/ml); type: functional; settings: dose 256 µg/ml
Escherichia coli [12] = experiment: Potentiation of chloramphenicol-induced antibacterial activity against AcrB deficient Escherichia coli BW25113 assessed as chloramphenicol MIC at 128 ug/ml incubated for 18 hrs under aerobic condition by checkerboard titration assay (reference value: 2 ug/ml); type: functional; settings: dose 128 µg/ml
Escherichia coli [13] = experiment: Potentiation of rifampicin-induced antibacterial activity against wild type Escherichia coli BW25113 assessed as rifampicin MIC at 128 ug/ml incubated for 18 hrs under aerobic condition by checkerboard titration assay (reference value: 16 ug/ml); type: functional; settings: dose 128 µg/ml
Escherichia coli [14] = experiment: Potentiation of TPP-induced antibacterial activity against AcrB deficient Escherichia coli BW25113 assessed as TPP MIC at 128 ug/ml incubated for 18 hrs under aerobic condition by checkerboard titration assay (reference value: 256 ug/ml); type: functional; settings: dose 128 µg/ml
Escherichia coli [15] = experiment: Potentiation of chloramphenicol-induced antibacterial activity against AcrB deficient Escherichia coli BW25113 assessed as chloramphenicol MIC at 256 ug/ml incubated for 18 hrs under aerobic condition by checkerboard titration assay (reference value: 2 ug/ml); type: functional; settings: dose 256 µg/ml
Escherichia coli [16] = experiment: Potentiation of erythromycin-induced antibacterial activity against wild type Escherichia coli BW25113 assessed as erythromycin MIC at 256 ug/ml incubated for 18 hrs under aerobic condition by checkerboard titration assay (reference value: 128 ug/ml); type: functional; settings: dose 256 µg/ml
Cell membrane [17] = experiment: Induction of outer membrane permeabilization in wild type Escherichia coli BW25113 assessed as increase in nitrocefin hydrolysis at 512 ug/ml measured for 30 mins in presence of CCCP by spectrophotometry analysis; type: subcellular; settings: dose 512.0 µg/ml
Cell membrane [18] = experiment: Disruption of inner membrane potential in wild type Escherichia coli BW25113 at 512 ug/ml preincubated for 10 mins followed by glucose stimulation and CCCP addition by DiOC2 probe based fluorimetric analysis; type: subcellular; settings: dose 512.0 µg/ml
Escherichia coli [19] = experiment: Antibacterial activity against AcrB deficient Escherichia coli BW25113 assessed as inhibition of bacterial growth at 256 ug/ml after 18 hrs by microtitre broth dilution assay; type: functional, organism-based; settings: dose 256.0 µg/ml
Escherichia coli [20] = experiment: Antibacterial activity against wild type Escherichia coli BW25113 assessed as inhibition of bacterial growth at 256 ug/ml after 18 hrs by microtitre broth dilution assay; type: functional, organism-based; settings: dose 256.0 µg/ml
Escherichia coli [21] = experiment: Potentiation of chloramphenicol-induced antibacterial activity against wild type Escherichia coli BW25113 assessed as fold reduction in chloramphenicol MIC at 256 ug/ml incubated for 18 hrs under aerobic condition by checkerboard titration assay relative to chloramphenicol MIC alone; type: functional; settings: dose 256 µg/ml
Escherichia coli [22] = experiment: Antibacterial activity against Wild type Escherichia coli BW25113 assessed as inhibition of AcrB efflux pump by mesuring the glucose-induced nile red efflux at 100 uM preincubated with CCCP for 15 mins followed by compound addition after 15 mins nile red added and incubated for 3 hrs in shaker by fluorimetric analysis; type: functional, organism-based; settings: time 195.0 min
Escherichia coli [23] = experiment: Antibacterial activity against Wild type Escherichia coli BW25113 assessed as inhibition of AcrB efflux pump by mesuring the glucose-induced nile red efflux at 200 uM preincubated with CCCP for 15 mins followed by compound addition after 15 mins nile red added and incubated for 3 hrs in shaker by fluorimetric analysis; type: functional, organism-based; settings: time 195.0 min
Escherichia coli [24] = experiment: Potentiation of TPP-induced antibacterial activity against wild type Escherichia coli BW25113 assessed as TPP MIC at 512 ug/ml incubated for 18 hrs under aerobic condition by checkerboard titration assay (reference value: 1024 ug/ml); type: functional; settings: dose 512 µg/ml
Escherichia coli [25] = experiment: Potentiation of erythromycin-induced antibacterial activity against wild type Escherichia coli BW25113 assessed as erythromycin MIC at 512 ug/ml incubated for 18 hrs under aerobic condition by checkerboard titration assay (reference value: 128 ug/ml); type: functional; settings: dose 512 µg/ml
Escherichia coli [26] = experiment: Potentiation of erythromycin-induced antibacterial activity against AcrB deficient Escherichia coli BW25113 assessed as erythromycin MIC at 512 ug/ml incubated for 18 hrs under aerobic condition by checkerboard titration assay (reference value: 32 ug/ml); type: functional; settings: dose 512 µg/ml
Escherichia coli [27] = experiment: Potentiation of TPP-induced antibacterial activity against AcrB deficient Escherichia coli BW25113 assessed as TPP MIC at 512 ug/ml incubated for 18 hrs under aerobic condition by checkerboard titration assay (reference value: 256 ug/ml); type: functional; settings: dose 512 µg/ml
Escherichia coli [28] = experiment: Potentiation of chloramphenicol-induced antibacterial activity against wild type Escherichia coli BW25113 assessed as chloramphenicol MIC at 512 ug/ml incubated for 18 hrs under aerobic condition by checkerboard titration assay (reference value: 16 ug/ml); type: functional; settings: dose 512 µg/ml
Escherichia coli [29] = experiment: Potentiation of chloramphenicol-induced antibacterial activity against AcrB deficient Escherichia coli BW25113 assessed as chloramphenicol MIC at 512 ug/ml incubated for 18 hrs under aerobic condition by checkerboard titration assay (reference value: 2 ug/ml); type: functional; settings: dose 512 µg/ml

Compound	MIC (Escherichia coli [1]) [µg/mL]	MIC (Escherichia coli [2]) [µg/mL]	MIC (Escherichia coli [3]) [µg/mL]	MIC (Escherichia coli [4]) [µg/mL]	MIC (Escherichia coli [5]) [µg/mL]	fold change (FC) (Escherichia coli [6])	MIC (Escherichia coli [7]) [µg/mL]	MIC (Escherichia coli [8]) [µg/mL]	MIC (Escherichia coli [9]) [µg/mL]	fold change (FC) (Escherichia coli [10])	MIC (Escherichia coli [11]) [µg/mL]	MIC (Escherichia coli [12]) [µg/mL]	MIC (Escherichia coli [13]) [µg/mL]	MIC (Escherichia coli [14]) [µg/mL]	MIC (Escherichia coli [15]) [µg/mL]	MIC (Escherichia coli [16]) [µg/mL]	Activity (Cell membrane [17])	Activity (Cell membrane [18])	fold change (FC) (Escherichia coli [21])	Activity (Escherichia coli [22])	further results
CCCNC(=O)c1cc(OCCC(C)C)c2ccccc2c1	16	1020	4	256	1020	4	32	32	16	4	4	2	16	256	1	16	inactive	–	–	–	–
NC(=O)c1cc(OCCNCc2ccco2)c2ccccc2c1	16	512	16	256	1020	–	128	–	16	–	16	–	16	–	1	128	Active	inactive	–	–	Activity (Escherichia coli [19]): Active; Activity (Escherichia coli [20]): inactive
O=C(NCc1ccco1)c1cc(OCc2ccccc2)c2ccccc2c1	16	256	4	–	1020	–	128	–	–	–	2	–	16	–	2	128	inactive	Active	8	Active	–
CC(C)CCOc1cc(C(=O)NC2CCCCC2)cc2ccccc12	2	–	–	–	1020	8	16	32	–	8	–	2	16	256	–	–	inactive	inactive	8	–	Activity (Escherichia coli [23]): Active
O=C(NCc1ccccc1)c1cc(OCc2ccccc2)c2ccccc2c1	–	1020	16	–	–	–	–	–	–	–	16	–	–	–	–	128	–	–	–	–	MIC (Escherichia coli [24]): 1020 µg/mL; MIC (Escherichia coli [25]): 64 µg/mL; MIC (Escherichia coli [26]): 32 µg/mL; MIC (Escherichia coli [27]): 256 µg/mL; MIC (Escherichia coli [28]): 16 µg/mL
O=C(NC1CCCCC1)c1cc(OCc2ccccc2)c2ccccc2c1	–	1020	16	–	–	–	–	–	–	–	16	–	–	–	–	64	–	–	–	Active	MIC (Escherichia coli [24]): 1020 µg/mL; MIC (Escherichia coli [25]): 32 µg/mL; MIC (Escherichia coli [26]): 32 µg/mL; MIC (Escherichia coli [27]): 256 µg/mL; MIC (Escherichia coli [29]): 2 µg/mL; MIC (Escherichia coli [28]): 16 µg/mL
